This is an account of results in US9968582B2, “Use of a benzoate containing composition in urea cycle disorders and neurodegenerative disorders” (Rush University Medical Center, priority 2014, dated 2018).

The test system of data set [1] is Tyrosine hydroxylase (TH). Description: MPTP mouse model of PD, Western blot of nigral TH. The data set is classed as in vivo, mice. To be noted: MPTP intoxication compared with saline-injected controls; FIG. 9A-B. As to the method:
(§1) Six- to eight-week old C57BL/6 mice were purchased from Harlan (Indianapolis, Ind.). For acute MPTP intoxication, mice received four intraperitoneal (i.p.) injections of MPTP-HCl (18 mg/kg of free base; Sigma Chemical Co., St. Louis, Mo.) in saline at 2-h intervals. Control animals received only saline.
(§2) GTB was mixed in 0.5% methylcellulose (MC) and from 3 h after the last injection of MPTP, mice were gavaged 100 μL GTB-mixed MC once daily using gavage needle. Therefore, control MPTP mice received only MC as vehicle.
(§3) Immunoblot analysis for DJ-1 and TH was carried out. Briefly, cell homogenates were electrophoresed, proteins were transferred onto a nitrocellulose membrane, and bands were visualized with an Odyssey infrared scanner after immunolabeling with respective primary antibodies followed by infra-red fluorophore-tagged secondary antibody (Invitrogen).
Tyrosine hydroxylase (TH), the key enzyme responsible for the production of dopamine, is present in dopaminergic neurons. MPTP-intoxication led to approximately 60% loss of nigral TH (FIG. 9A-B) compared with saline-injected controls.

Data set [2] relates to dopamine (DA) in the striata. Put plainly: MPTP mouse model of PD, HPLC of striatal dopamine. Type of data set: in vivo, mice. To be noted: MPTP intoxication compared to saline-injected control mice, 7 days; FIG. 10. As to the method: as §1, §2
Striatal level of dopamine was quantified in Complete Stand-Alone HPLC-ECD System EiCOMHTEC-500 (JM Science Inc., Grand Island, N.Y.). Briefly, mice were sacrificed by cervical dislocation after 7 days of MPTP intoxication and their striata were collected and immediately frozen in dry ice and stored at −80° C. until analysis. On the day of the analysis, tissues were sonicated in 0.2M perchloric acid containing isoproterenol and resulting homogenates were centrifuged at 20,000×g for 15 min at 4 C. After pH adjustment and filtration, 10 μl of supernatant was injected onto an Eicompak SC-3ODS column (Complete Stand-Alone HPLC-ECD System EiCOMHTEC-500 from JM Science Inc., Grand Island, N.Y.) and analyzed following the manufacturer's protocol.
Next, to determine whether GTB protects against biochemical deficits caused by MPTP, the inventor quantified levels of dopamine (DA) in the striata 7 days after the MPTP treatment. As evident from FIG. 10, MPTP intoxication led to about 75% decrease in striatal DA compared to striata of saline-injected control mice.

Data set [3] deals with DJ-1. Description: MPTP mouse model of PD, Western blot of DJ-1 in the nigra. The data set is classed as in vivo, mice. To be noted: MPTP intoxication; FIG. 9A-B. The procedure:
as §1, §2, §3
Upregulation and/or maintenance of PD-related beneficial protein such as DJ-1 in the nigra during neurodegenerative insults may have therapeutic efficacy in PD.

Data set [4] has as its system BDNF. The conditions noted are these: brain cells; cited from earlier work.
The conditions of data set [5]: in vivo; cited from earlier work.
The test system of data set [6] is DJ-1. To be noted: astrocytes and neurons (cited title); cited from earlier work.
Data set [7] has as its system NT-3. To be noted: brain cells; cited from earlier work.
Data set [8] relates to disease process of multiple sclerosis (MS) in mice. To be noted: cited from earlier work.

In the case of `CN1CC=C(c2ccccc2)CC1` [MPTP, reference compound], the “loss of nigral TH” value in data set [1] is recorded as “approximately 60%”. In data set [2], the “decrease in striatal DA” value is “about 75%”. Moreover, the “level of DJ-1 in the nigra” value in data set [3] is “decreased the level of DJ-1”.
As for `O=C([O-])c1ccccc1.[Na+]` [sodium benzoate], the “production of BDNF” value in data set [4] is on record as “increases the production”. Further, the metabolism and excretion entry in data set [5] is “quickly metabolized and excreted from the body”. The DJ-1 protein entry in data set [6] was “up-regulates”. For the same compound, in data set [7], the “production of NT-3” value is “increases the production”. Besides, the “disease process of multiple sclerosis (MS)” value in data set [8] is recorded as “suppresses the disease process”.
